Results taken from patent publication US20200276139A1 (Evoke Pharma, Inc., priority 2017, published 2020).

Key:
[1] = Reglan package insert; cited from earlier work
[2] = Study METO-IN-006: open-label, randomized, 4-treatment crossover pharmacokinetic/bioequivalence study of intranasal metoclopramide (Gimoti 15, 16, 17 mg) vs Reglan Tablets 10 mg; format: in vivo, human; details: overall population; 16 and 17 mg doses; prior comparative bioavailability study
[3] = as above; format: in vivo, human; details: for AUC0-inf Inter-CV % (Between-Subject) / AUC0-inf Intra-CV % (Within-Subject) / AUC0-t Inter-CV % (Between-Subject) / AUC0-t Intra-CV % (Within-Subject) / Cmax Inter-CV % (Between-Subject) / Cmax Intra-CV % (Within-Subject): bioequivalence analysis over all treatments
From the text: In the study, approximately 108 healthy subjects may be enrolled to allow approximately 100 subjects to complete the study.
The pharmacokinetic study will be an open-label, randomized, 4-treatment, 4-period, 4-sequence crossover study. […] Further, the subjects will undergo screening, in which the eligibility of the subjects will be assessed after completion of inclusion and exclusion criteria. […] Samples will be collected over many hours after the dose. Subjects will return to the clinic after the minimum washout for subsequent doses until the four-period cross-over is completed.
Blood samples will be collected prior to dosing, and at predetermined time periods after each dose. […] Relevant pharmacokinetic parameters will be summarized using descriptive statistics.
Collect blood from a subject. • 2. Gently mix the collected blood prior to centrifugation and place immediately on ice. • 3. Centrifuge the sample in a refrigerated centrifuge. • 4. Immediately following centrifugation, gently remove plasma from the packed cells. • 5. Freeze the plasma samples immediately at approximately −20° C. or lower.

**Q.** With `CCN(CC)CCNC(=O)c1cc(Cl)c(N)cc1OC` [metoclopramide, 4-amino-5-chloro-N-(2-(diethylamino)ethyl)-2-methoxybenzamide] as the molecule, how does the plasma protein binding [1] read?
**A.** The plasma protein binding was “approximately 30%”.

**Q.** And the “volume distribution of metoclopramide” value [1]?
**A.** The value was “approximately 3.5 L/kg”.

**Q.** And the “bioequivalence criteria for AUC” value [2]?
**A.** Its value is “met the bioequivalence criteria”.

**Q.** What about the “AUC0-inf Inter-CV % (Between-Subject)” value ([3]; Female) of the same molecule?
**A.** Its value is 43.72%.

**Q.** What about the “AUC0-inf Intra-CV % (Within-Subject)” value ([3]; Female) of the same molecule?
**A.** Its value is 48.14%.

**Q.** What about the “AUC0-t Inter-CV % (Between-Subject)” value ([3]; Female) of the same molecule?
**A.** Its value is 43.12%.

**Q.** What about the “AUC0-t Intra-CV % (Within-Subject)” value ([3]; Female) of the same molecule?
**A.** Its value is 52.62%.

**Q.** What about the “Cmax Inter-CV % (Between-Subject)” value ([3]; Female) of the same molecule?
**A.** The value was 35.03%.

**Q.** What about the “Cmax Intra-CV % (Within-Subject)” value ([3]; Female) of the same molecule?
**A.** The value was 58.04%.

**Q.** What about the “AUC0-inf Inter-CV % (Between-Subject)” value ([3]; Male) of the same molecule?
**A.** The value was 44.81%.

**Q.** What about the “AUC0-inf Intra-CV % (Within-Subject)” value ([3]; Male) of the same molecule?
**A.** The value was 55.82%.

**Q.** And the “AUC0-t Inter-CV % (Between-Subject)” value ([3]; Male)?
**A.** Its value is 52.65%.

**Q.** And the “AUC0-t Intra-CV % (Within-Subject)” value ([3]; Male)?
**A.** The value was 62.88%.

**Q.** And the “Cmax Inter-CV % (Between-Subject)” value ([3]; Male)?
**A.** The value was 54.25%.

**Q.** What about the “Cmax Intra-CV % (Within-Subject)” value ([3]; Male) of the same molecule?
**A.** The value was 78.31%.

**Q.** What about the “AUC∞, AUCt, and Cmax, women versus men” value ([3]; each dose of metoclopramide tested) of the same molecule?
**A.** The value was “significantly higher in women than in men”.

**Q.** And the “Treatment Emergent Adverse Events (TEAEs) and other safety parameters, males vs females” value ([3]; review of data of both studies)?
**A.** Its value is “no differences between males and females”.
